The values that follow come from EP0126849A1, “Pharmacologically active N-amino hydantoin derivatives, their synthesis and intermediates” (THE WELLCOME FOUNDATION LIMITED, priority 1983, dated 1984).

Converted amounts (≈) assume the structure as drawn. Where two headings read alike, the source gives them in different places.

Series [1] relates to platelet aggregation. In words: Inhibition of platelet aggregation in human platelet-rich plasma (Born-type aggregometer, ADP or other aggregating agent). Type of series: cell-based. The note with it: for IC50 / Potency relative to PGI2: human PRP; for IC50: 1 min incubation at 37°C before aggregating agent; for Potency relative to PGI2: 1 min incubation, PGI2 = 1; for Increase on Incubation (min) 5: increase in potency after 5 min incubation in PRP. As to the method:
Human blood was freshly collected into siliconized (Siloclad; Clay Adams) plastic (Sterilin Ltd.) vessels containing trisodium citrate (3.15%; 0.1 volume with 0.9 volume blood) and centrifuged (200 g for 15 min) at room temperature. The platelet-rich plasma (PRP) was withdrawn into plastic containers and kept at room temperature. Inhibition of […] prior to addition of sufficient adenosine diphosphate (ADP) or other aggregating agent to just cause a non-reversing control aggregation. Dose-inhibition curves were constructed for each compound and the ID50 (dose causing 50% inhibition) was calculated as the dose required to reduce the aggregation to 50% of its control amplitude. […] For comparison, also given are the results upon administration of 5-(6-carboxyhexyl)-1-(3-cyclohexyl-3-hydroxypropyl)hydantoin (Compound X) which is disclosed in UK Specification 1,595,694. -
In this and subsequent biological examples, where a compound number refers to a single diastereoisomer, a mixture of diastereoisomers is indicated by two compound numbers separated by /.

Series [2] deals with mean systemic arterial blood pressure (BP). In words: Cardiovascular actions in rats: fall in blood pressure and duration of the hypotensive effect. The series is classed as in vivo, male Wistar rats. The conditions noted are these: for Fall in BP Relative Potency PGE1 / Fall in BP Relative Potency PGI2: anaesthetized rat, i.v. injection; for Fall in BP Relative Potency PGE1: potency ratio against PGE1; for Fall in BP Relative Potency PGI2: potency ratio against PGI2; for Duration t½: time from peak hypotensive response to recovery to half its peak, rat i.v. As to the method: Anaesthesia was induced in male Wistar rats (250-300 g body weight) with sodium pentobarbitone (30 mg kg^-1, i.v.) and supplemented (3 mg kg^-1) when required. Arterial pressure was recorded from a cannulated femoral artery and heart rate derived from the arterial pulse. Rectal temperature was maintained at 37°C by thermistor-controlled radiant heat. Each compound was injected into a femoral vein in a volume of 0.25 ml and flushed in with 0.2 ml of saline (0.9% w/v). Dose-response relationships for the fall in mean systemic arterial blood pressure (BP) with the hydantoins were constructed and compared to those obtained with PGI2 and PGE, in the same animal, and a potency ratio calculated. […] Figures for Compound X and PGI2 are listed for comparison.

The subject of series [3] is B.P. In words: Cardiovascular studies in the dog: vasodepressor potency and duration. Type of series: in vivo, Dogs. The note with it: i.v. bolus. The protocol: Dogs (10-15 kg body weight) were anaesthetized with chloralose (80 mg/kg i.v.) and maintained with subcutaneous injections of pentobarbitone (3 mg/kg). Drugs were administered via a femoral vein by bolus injection and B.P. was recorded from the right femoral artery. Results give vasodepressor potency and t1 2 duration. Figures for Compound X are provided for comparison.

Series [4] relates to acid-ethanol induced gastric lesions. In words: Inhibition of acid-ethanol induced gastric lesions in rats (cytoprotection). The series is classed as in vivo. The note with it: rat, oral. The protocol:
The inhibition of acid-ethanol induced gastric lesions in rats (cytoprotection) was measured for various doses of orally administered hydantoin. Figures for compound X are given for comparison.

Setting [5] is: Homo sapiens, Platelet, 1 min, read-out: IC50.

In the case of `O=C(O)CCCCCCC1C(=O)NC(=O)N1N=CC(O)c1ccccc1` (single isomer, unassigned) [Compound No. 11, 5-(6-carboxyhexyl)-1-(2-hydroxy-2-phenylethylldeneamino)hydantoln], the IC50 in series [1] (setting [5]) stood at 1 ng/mL (≈ 0.00277 µM). Also, in series [1], the “Potency relative to PGI2” value was determined as 0.53 and the “Increase on Incubation (min) 5” value is reported as “x8”. Besides, in series [2], the “Fall in BP Relative Potency PGE1” value is 1.1, the “Fall in BP Relative Potency PGI2” value is reported as 0.1 and the “Duration t½” value is 16.0 min.
As to `CCCCCC(O)CNN1C(=O)NC(=O)C1CCCCCCC(=O)O` (single isomer, unassigned) [Compound No. 35, 5-(6-carboxyhexyl)-I-(2-hydroxyheptylamino)hydantoin], the IC50 in series [1] (setting [5]) was 12.7 ng/mL (≈ 0.0355 µM). Moreover, in series [1], the “Potency relative to PGI2” value amounted to 0.05 and the “Increase on Incubation (min) 5” value is “x1.5”. In series [2], the “Fall in BP Relative Potency PGI2” value was 0.01 and the “Duration t½” value was determined as 1.3 min.
Consider `O=C(O)CCCCCCC1C(=O)NC(=O)N1NCC(O)C1CCCCC1` (single isomer, unassigned) [compound 29, 5-(6-carboxyhexyl)-1-(2-cyclohexyl-2-hydroxyethylamino)hydantoln], for which the IC50 in series [1] (setting [5]) was found to be 6 ng/mL (≈ 0.0162 µM). Further, in series [1], the “Potency relative to PGI2” value was 0.16 and the “Increase on Incubation (min) 5” value is “x7”. Besides, in series [2], the “Fall in BP Relative Potency PGE1” value stood at 0.24, the “Fall in BP Relative Potency PGI2” value is recorded as 0.02 and the “Duration t½” value was 37 min. For the same compound, the “Δ BP” value in series [3] (Dose 0.625 ug kg^-1) was -26 mm Hg. This compound yielded a t1/2 in series [3] (Dose 0.625 ug kg^-1, duration of vasodepressor effect) greater than 30 min. Further, the “Δ BP” value in series [3] (Dose 1.25 ug kg^-1) was -51 mm Hg. The t1/2 in series [3] (Dose 1.25 ug kg^-1, duration of vasodepressor effect) was greater than 60 min.
Turning to `CCOC(=O)CCCCCCC1C(=O)NC(=O)N1N=CC(OC(C)=O)C1CCCCC1` (stereo not drawn) [4/5, 1-(2-acetoxy-2-cyclohexylethylideneamino)-5-(6-ethoxycarbonylhexyl)hydantoin], in series [4] (Dose 50 μg kg^-1), the % inhibition (in general, the drop in the measured response relative to a control, in per cent) is 90 ± 6%.
Take `CCCCCC(O)C=NN1C(=O)NC(=O)C1CCCCCCC(=O)O` (stereo not drawn) [17/18, 5-(6-carboxyhexyl)-1-(2-hydroxyheptylideneamino)hydantoin]: in series [1], the IC50 was found to be 8 ngml^-1, the “Potency relative to PGI2” value is on record as 0.12 and the “Increase on Incubation (min) 5” value is on record as “x2”. Further, in series [2], the “Fall in BP Relative Potency PGE1” value worked out at 0.48, the “Fall in BP Relative Potency PGI2” value is listed as 0.04 and the “Duration t½” value is 10 to 19 min.
On to `O=C(O)CCCCCCC1C(=O)NC(=O)N1N=CC(O)Cc1ccccc1` (stereo not drawn) [23/24, 5-(6-carboxyhexyl)-1-(2-hydroxy-3-phenylpropylideneamino)hydantoin], for which, in series [4] (Dose 10 μg kg^-1), the “% inhibition” value amounted to 55 ± 15%.
For `CN1C(=O)C(CCCCCCC(=O)O)N(N=CC(O)C2CCCCC2)C1=O` (stereo not drawn) [25/26, 5-(6-carboxyhexyl)-1-(2-cyclohexyl-2-hydroxyethylideneamino)-3-methylhydantoin], in series [1] (setting [5]), the IC50 was found to be 13 ng/mL (≈ 0.0341 µM). Also, in series [1], the “Potency relative to PGI2” value came to 0.06 and the “Increase on Incubation (min) 5” value is “x6”. Further, in series [2], the “Fall in BP Relative Potency PGE1” value was determined as 1.08, the “Fall in BP Relative Potency PGI2” value came out at 0.09 and the “Duration t½” value was found to be 9 min.
Turning to `O=C(O)CCCCCCC1C(=O)NC(=O)N1NCC(O)c1ccccc1` (stereo not drawn) [33/34, 5-(6-carboxyhexyl)-1-(2-hydroxy-2-phenylethylamino) hydantoin], in series [1], the IC50 came out at 6 ngml^-1, the “Potency relative to PGI2” value is reported as 0.17 and the “Increase on Incubation (min) 5” value is “x2”. For the same compound, in series [2], the “Fall in BP Relative Potency PGE1” value is on record as 0.24, the “Fall in BP Relative Potency PGI2” value came out at 0.02 and the “Duration t½” value stood at 6 min.
For `CCCCCC(O)CNN1C(=O)NC(=O)C1CCCCCCC(=O)O` (stereo not drawn) [35/36, 5-(6-carboxyhexyl)-1-(2-hydroxyheptylamino)hydantoin], in series [1] (setting [5]), the IC50 was determined as 1.27 ng/mL (≈ 0.00355 µM). In series [1], the “Potency relative to PGI2” value was 0.49 and the “Increase on Incubation (min) 5” value is “x1.5”. Besides, in series [2], the “Fall in BP Relative Potency PGI2” value worked out at 0.06 and the “Duration t½” value was 0.1 min.
Take `CN1C(=O)C(CCCCCCC(=O)O)N(NCC(O)C2CCCCC2)C1=O` (stereo not drawn) [37/38]: in series [4] (Dose 10 μg kg^-1), the “% inhibition” value is given as 71 ± 7%. For the same compound, in series [1] (setting [5]), the IC50 was found to be 3 ng/mL (≈ 0.00782 µM). In addition, in series [1], the “Potency relative to PGI2” value was 0.18 and the “Increase on Incubation (min) 5” value is “x7”. Further, in series [2], the “Fall in BP Relative Potency PGE1” value was 0.36, the “Fall in BP Relative Potency PGI2” value was 0.03 and the “Duration t½” value worked out at 17 min.
In the case of `CCCCCC(O)C=NN1C(=O)NC(=O)C1CCCCCCC(=O)O` (stereo not drawn) [Compound No. 17, 5-(6-carboxyhexyl)-1-(2-hydroxyheptylideneamino)hydantoin], in series [1], the IC50 was 131 ngml^-1, the “Potency relative to PGI2” value was determined as 0.01 and the “Increase on Incubation (min) 5” value is “x2”. For the same compound, in series [2], the “Fall in BP Relative Potency PGE1” value is reported as 0.12, the “Fall in BP Relative Potency PGI2” value amounted to 0.01 and the “Duration t½” value stood at 3.5 min.
Regarding `O=C(O)CCCCCCC1C(=O)NC(=O)N1NCC(O)C1CCCCC1` (stereo not drawn) [Compound No. 30, 5-(6-carboxyhexyl)-1-(2-cyclohexyl-2-hydroxyethylamino) hydantoin], in series [4] (Dose 25 μg kg^-1), the “% inhibition” value was 65 ± 17%. Also, the IC50 in series [1] (setting [5]) was 0.9 ng/mL (≈ 0.00244 µM). Moreover, in series [1], the “Potency relative to PGI2” value is given as 0.64 and the “Increase on Incubation (min) 5” value is on record as “x6”. Moreover, in series [2], the “Fall in BP Relative Potency PGE1” value was 0.24, the “Fall in BP Relative Potency PGI2” value is 0.02 and the “Duration t½” value was 28 min.
On to `O=C(O)CCCCCCC1C(=O)NC(=O)N1NCC(O)c1ccccc1` (stereo not drawn) [Compound No. 33, 5-(6-carboxyhexyl)-1-(2-hydroxy-2-phenylethylamino)hydantoin], for which, in series [1], the IC50 was 5.3 ngml^-1, the “Potency relative to PGI2” value was 0.07 and the “Increase on Incubation (min) 5” value is on record as “x2”.
With `O=C(O)CCCCCCC1C(=O)NC(=O)N1NCC(O)c1ccccc1` (stereo not drawn) [Compound No. 34, 5-(6-carboxyhexyl)-1-(2-hydroxy-2-phenylethylamino)hydantoin], in series [1], the IC50 is listed as 175 ngml^-1 and the “Potency relative to PGI2” value was found to be 0.003.
As to `O=C(O)CCCCCCC1C(=O)NC(=O)N1N=CCC1CCCCC1` (stereo not drawn) [compound 8, 5-(6-carboxyhexyl)-1-(2-cyclahexylethylideneamino) hydantoin], the “% inhibition” value in series [4] (Dose 25 μg kg^-1) came out at 71 ± 6%. Also, the “% inhibition” value in series [4] (Dose 50 μg kg^-1) was determined as 76 ± 11%. The IC50 in series [1] (setting [5]) is 24 ng/mL (≈ 0.0683 µM). For the same compound, in series [1], the “Potency relative to PGI2” value is listed as 0.05. In addition, in series [2], the “Fall in BP Relative Potency PGE1” value stood at 0.11, the “Fall in BP Relative Potency PGI2” value was 0.01 and the “Duration t½” value amounted to 1.0 min.
